Measurements taken from PubChem BioAssay AID1963967 (Molecular Pharmacology Branch, DTP, NCI, 2024).
pIC50: −log10 of the molar value. “And” between values parts separate entries of the source, which are not always exact repeats. Equal values may be shown once.

Tested on: 855422-203-R-J1-PDC spheroids with HUVEC/MSC, viability
Test: Anticancer human tumor 855422-203-R-J1-PDC patient-derived bladder carcinoma cell line growth inhibition [PI3K]
Details: for viability, T/C: stronger effect = lower value
In short: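 Complex 3D spheroids (cancer cells + endothelial HUVEC + mesenchymal stem cells); drug pairs of targeted agent x inavolisib/alpelisib/duvelisib/copanlisib; half-log series from ~Cmax, max 10 microM if Cmax unknown; endpoint viability.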

[1] = curve of first compound, second compound 0.0316 µM
[2] = curve of first compound, second compound 0.1 µM
[3] = curve of first compound, second compound 0.316 µM
[4] = curve of first compound, second compound 1 µM
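Also: agents incubated with spheroids for one week before read-out.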
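For viability, T/C in this document: 100% = DMSO vehicle-treated control wells.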

Cn1ncnc1[C@H]1c2n[nH]c(=O)c3cc(F)cc(c23)N[C@@H]1c1ccc(F)cc1 + CC(Nc1ccc2c(c1)OCCn1cc(N3C(=O)OCC3C(F)F)nc1-2)C(N)=O
pIC50 (curve of first compound, second compound 0.00316 µM): < 7.00 | pIC50 (curve of first compound, second compound 0.01 µM): < 7.00 | pIC50 [1]: < 7.00 | pIC50 [2]: < 7.00 | pIC50 [3]: 7.95 | pIC50 [4]: > 9.50 | viability, T/C (second compound 0.00316 µM, first compound 0.000316 µM): 104% | viability, T/C (second compound 0.00316 µM, first compound 0.001 µM): 91.8% | viability, T/C (second compound 0.00316 µM, first compound 0.00316 µM): 107% | viability, T/C (second compound 0.00316 µM, first compound 0.01 µM): 87.5% | viability, T/C (second compound 0.00316 µM, first compound 0.0316 µM): 97.8% | viability, T/C (second compound 0.00316 µM, first compound 0.1 µM): 109% | viability, T/C (second compound 0.01 µM, first compound 0.000316 µM): 114% | viability, T/C (second compound 0.01 µM, first compound 0.001 µM): 92.5% | viability, T/C (second compound 0.01 µM, first compound 0.00316 µM): 97% | viability, T/C (second compound 0.01 µM, first compound 0.01 µM): 99.4% | viability, T/C (second compound 0.01 µM, first compound 0.0316 µM): 100% | viability, T/C (second compound 0.01 µM, first compound 0.1 µM): 104% | viability, T/C (second compound 0.0316 µM, first compound 0.000316 µM): 96.4% | viability, T/C (second compound 0.0316 µM, first compound 0.001 µM): 92.3% | viability, T/C (second compound 0.0316 µM, first compound 0.00316 µM): 90.6% | viability, T/C (second compound 0.0316 µM, first compound 0.01 µM): 88.3% | viability, T/C (second compound 0.0316 µM, first compound 0.0316 µM): 96% | viability, T/C (second compound 0.0316 µM, first compound 0.1 µM): 91.8% | viability, T/C (second compound 0.1 µM, first compound 0.000316 µM): 74.7% | viability, T/C (second compound 0.1 µM, first compound 0.001 µM): 72.9% | viability, T/C (second compound 0.1 µM, first compound 0.00316 µM): 55.5% | viability, T/C (second compound 0.1 µM, first compound 0.01 µM): 69% | viability, T/C (second compound 0.1 µM, first compound 0.0316 µM): 78% | viability, T/C (second compound 0.1 µM, first compound 0.1 µM): 80.8% | viability, T/C (second compound 0.316 µM, first compound 0.000316 µM): 56.4% | viability, T/C (second compound 0.316 µM, first compound 0.001 µM): 56% | viability, T/C (second compound 0.316 µM, first compound 0.00316 µM): 42.4% | viability, T/C (second compound 0.316 µM, first compound 0.01 µM): 56.1% | viability, T/C (second compound 0.316 µM, first compound 0.0316 µM): 54.6% | viability, T/C (second compound 0.316 µM, first compound 0.1 µM): 40.7% | viability, T/C (second compound 1 µM, first compound 0.000316 µM): 39.1% | viability, T/C (second compound 1 µM, first compound 0.001 µM): 36.7% | viability, T/C (second compound 1 µM, first compound 0.00316 µM): 35.7% | viability, T/C (second compound 1 µM, first compound 0.01 µM): 35.6% | viability, T/C (second compound 1 µM, first compound 0.0316 µM): 33.5% | viability, T/C (second compound 1 µM, first compound 0.1 µM): 27.2%

C#Cc1c(F)ccc2cc(O)cc(-c3ncc4c(N5CC6CCC(C5)N6)nc(OCC56CCCN5CC(F)C6)nc4c3F)c12 (stereo not drawn)
viability, T/C (compound 0.0316 µM): 110% [middle of 4 runs] | viability, T/C (compound 0.1 µM): 101% (2×) and 94.4% and 83.5% | viability, T/C (compound 0.316 µM): 109% [middle of 4 runs] | viability, T/C (compound 1 µM): 103% [middle of 4 runs] | viability, T/C (compound 3.16 µM): 109% [middle of 4 runs] | viability, T/C (compound 10 µM): 114% (2×) and 107% and 112% | pIC50 (curve of compound): < 5.00

Cn1cnc2c(F)c(Nc3ccc(Br)cc3Cl)c(C(=O)NOCCO)cc21 + CC(Nc1ncnc2nc[nH]c12)c1cc2cccc(Cl)c2c(=O)n1-c1ccccc1
pIC50 [1]: < 5.52 | pIC50 [2]: < 5.52 | pIC50 [3]: 5.62 | pIC50 [4]: 5.66 | pIC50 (curve of first compound, second compound 3.16 µM): 5.78 | pIC50 (curve of first compound, second compound 10 µM): 6.28 | viability, T/C (second compound 0.0316 µM, first compound 0.00949 µM): 116% | viability, T/C (second compound 0.0316 µM, first compound 0.03 µM): 90.7% | viability, T/C (second compound 0.0316 µM, first compound 0.0949 µM): 114% | viability, T/C (second compound 0.0316 µM, first compound 0.3 µM): 87.9% | viability, T/C (second compound 0.0316 µM, first compound 0.949 µM): 78.6% | viability, T/C (second compound 0.0316 µM, first compound 3 µM): 50.4% | viability, T/C (second compound 0.1 µM, first compound 0.00949 µM): 109% | viability, T/C (second compound 0.1 µM, first compound 0.03 µM): 97% | viability, T/C (second compound 0.1 µM, first compound 0.0949 µM): 104% | viability, T/C (second compound 0.1 µM, first compound 0.3 µM): 93.8% | viability, T/C (second compound 0.1 µM, first compound 0.949 µM): 90.5% | viability, T/C (second compound 0.1 µM, first compound 3 µM): 50.1% | viability, T/C (second compound 0.316 µM, first compound 0.00949 µM): 91.2% | viability, T/C (second compound 0.316 µM, first compound 0.03 µM): 100% | viability, T/C (second compound 0.316 µM, first compound 0.0949 µM): 101% | viability, T/C (second compound 0.316 µM, first compound 0.3 µM): 103% | viability, T/C (second compound 0.316 µM, first compound 0.949 µM): 80.2% | viability, T/C (second compound 0.316 µM, first compound 3 µM): 42.4% | viability, T/C (second compound 1 µM, first compound 0.00949 µM): 86.9% | viability, T/C (second compound 1 µM, first compound 0.03 µM): 96.3% | viability, T/C (second compound 1 µM, first compound 0.0949 µM): 103% | viability, T/C (second compound 1 µM, first compound 0.3 µM): 88.1% | viability, T/C (second compound 1 µM, first compound 0.949 µM): 79% | viability, T/C (second compound 1 µM, first compound 3 µM): 38.7% | viability, T/C (second compound 3.16 µM, first compound 0.00949 µM): 97% | viability, T/C (second compound 3.16 µM, first compound 0.03 µM): 96.5% | viability, T/C (second compound 3.16 µM, first compound 0.0949 µM): 100% | viability, T/C (second compound 3.16 µM, first compound 0.3 µM): 87.3% | viability, T/C (second compound 3.16 µM, first compound 0.949 µM): 67.3% | viability, T/C (second compound 3.16 µM, first compound 3 µM): 31.8% | viability, T/C (second compound 10 µM, first compound 0.00949 µM): 85.9% | viability, T/C (second compound 10 µM, first compound 0.03 µM): 74.1% | viability, T/C (second compound 10 µM, first compound 0.0949 µM): 70.9% | viability, T/C (second compound 10 µM, first compound 0.3 µM): 58.6% | viability, T/C (second compound 10 µM, first compound 0.949 µM): 41.6% | viability, T/C (second compound 10 µM, first compound 3 µM): 21.4%

Cn1ncc(Cl)c1-c1cc(C(=O)NC(CN)Cc2cccc(F)c2)sc1Cl (stereo not drawn)
viability, T/C (compound 0.0316 µM): 93.2% [middle of 4 runs] | viability, T/C (compound 0.1 µM): 75.2% [middle of 4 runs] | viability, T/C (compound 0.316 µM): 69.4% [middle of 4 runs] | viability, T/C (compound 1 µM): 49.7% [middle of 4 runs] | viability, T/C (compound 3.16 µM): 28.2% [middle of 4 runs] | viability, T/C (compound 10 µM): 8.18% [middle of 4 runs] | IC50 (curve of compound): 936 nM [middle of 4 runs]
